# Data from patent US11192865B2, “Benzosulfonyl compounds” (Vivace Therapeutics, Inc., priority 2017, dated 2021).
# Tested on: 8XTBD luciferase reporter
# Assay: YAP Reporter Assay
# Type: cell-based
# Details: Homo sapiens, HEK-293T; HEK293T cells stably transfected with 8XTBD luciferase reporter and pRLTK; 24-hr incubation; starting from 3 μM, 1:3 dilution, 10 points; read-out: Firefly Luciferase IC50
# Protocol: HEK293T cells stably transfected with 8XTBD luciferase reporter and pRLTK in 384-well plates were treated with the test compounds, starting from 3 μM (final concentration in assay plate), 1:3 dilution, and 10 points in quadruplicates. Post 24-hr incubation with compounds at 37° C. and 5% CO2, cells were lysed and 8XTBD-driven firefly luciferase and control TK-driven renilla luciferase activities were measured using Promega Dual-Luciferase Reporter Assay System.
# Reagents: The reagents used for this study are: DMEM: Invitrogen #11960077, Dual-Glo Luciferase Assay System: Promega-E2980, Puromycin Dihydrochloride: Invitrogen-A1113803, 384-well plate: PerkinElmer-6007480, L-GLUTAMINE: Invitrogen-25030164, Hygromycin B: Invitrogen-10687010, and Penicillin-Streptomycin: Merk-TMS-AB2-C
# Media: The media used for this assay were: Culture Medium: DMEM+1 ug/mL puromycin+200 ug/mL hygromycin (with 10% FBS+1 mM L-glutamine); and Assay Medium: DMEM (with 10% FBS+1 mM L-glutamine+1×P/S).
# Cell Plating: The appropriate media was warmed at 37° C. by water bath: Culture Medium, Assay Medium, 1* D-PBS, 0.05% trypsin-EDTA. The cells were trypsinized after removing all media, then washed with 1* sterile D-PBS and then with 2 ml 0.05% trypsin-EDTA. The cells were then incubated at RT for one minute. Then 10 ml/75 cm2 flask Assay Medium was added to each flask. Using a 10 ml pipette, the cells were then gently resuspended in the media, until the clumps completely disappeared. The cells were then transferred into 50 ml centrifuge tubes and were centrifuged at 800 rpm for 5 mins. The medium was removed and the cells were resuspended with Assay Medium. An aliquot of cells was used to count the cell density (cells/ml). The cell suspension was then diluted with Assay Medium to a concentration of 6×10^4 cells/ml. 50 ul cells suspension was then plated to 384-well plate (PerkinElmer-6007480), 3×10^3 cells/well and the cells were incubated in an incubator at 37° C., 5% CO2.
# Compound Treatment: In the afternoon (incubation of the plate with 3-4 hrs), the test compounds were added by Echo, starting from 3 uM (final concentration in the assay plate), 1:3 dilution, 10 points, quadruplicates. The plate was placed at 37° C., 5% CO2 incubator for 24 hrs.
# Detection: The Dual-Glo Luciferase Reagent was prepared by transferring the contents of one bottle of Dual-Glo Luciferase Buffer to one bottle of Dual-Glo Luciferase Substrate to create the Dual-Glo Luciferase Reagent. Mixing was performed by inversion until the substrate was thoroughly dissolved. After mixing, the reagent was aliquoted into 15 ml tubes. In the afternoon (24 hrs post compound treatment), the DMEM+ medium in the 384 well plates were aspirated by Microplate Washer.
# Measuring firefly luciferase activity: 20 ul Dual-Glo Luciferase Reagent was added to the 384-well plates. The plates were protected from light to prevent interference with the assay. The plates were shaken for 1 min followed centrifuging plates at 1000 rpm for 30 seconds. After waiting at least 10 minutes, the firefly luminescence was measured by Envision.
# Measuring renilla luciferase activity: 20 ul Stop-Glo Reagent was added to the 384-well plates. The plates were shaken for 1 min and then centrifuged at 1000 rpm for 30 seconds. After waiting at least 10 minutes, the renilla luminescence was measured by Envision.
# Compound IC50 and maximum inhibition on the firefly luciferase and renilla luciferase activities were reported separately.
row,IC50 [nM],Compound
1,≤ 100,"CNS(=O)(=O)c1ccc(NC2CCCCC2)c(-c2ccccn2)c1 [Compound 64, 4-(cyclohexylamino)-N-methyl-3-(pyridin-2-yl)benzenesulfonamide]"
2,> 3000,"CNS(=O)(=O)c1ccc(NC2CCCCC2)c(-c2ccncc2)c1 [Compound 65, 4-(cyclohexylamino)-N-methyl-3-(pyridin-4-yl)benzenesulfonamide]"
3,100 to 1000,"CNS(=O)(=O)c1ccc(NC2CCCCC2)c(-c2ccncn2)c1 [Compound 69, 4-(cyclohexylamino)-N-methyl-3-(pyrimidin-4-yl)benzenesulfonamide]"
4,100 to 1000,"CNS(=O)(=O)c1ccc(NC2CCCCC2)c(-c2cccc(N)n2)c1 [Compound 76, 3-(6-aminopyridin-2-yl)-4-(cyclohexylamino)-N-methylbenzenesulfonamide]"
5,> 3000,"CNS(=O)(=O)c1ccc(NC2CCCCC2)c(-c2cccnc2)c1 [Compound 77, 4-(cyclohexylamino)-N-methyl-3-(pyridin-3-yl)benzenesulfonamide]"
6,> 3000,"CNS(=O)(=O)c1ccc(NC2CCCCC2)c(-c2ncccc2C)c1 [Compound 78, 4-(cyclohexylamino)-N-methyl-3-(3-methylpyridin-2-yl)benzenesulfonamide]"
7,≤ 100,"CNS(=O)(=O)c1ccc(NC2CCCCC2)c(-c2ncccc2F)c1 [Compound 79, 4-(cyclohexylamino)-3-(3-fluoropyridin-2-yl)-N-methylbenzenesulfonamide]"
8,1000 to 3000,"CNS(=O)(=O)c1ccc(NC2CCCCC2)c(-c2ncccc2OC)c1 [Compound 80, 4-(cyclohexylamino)-3-(3-methoxypyridin-2-yl)-N-methylbenzenesulfonamide]"
9,≤ 100,"CNS(=O)(=O)c1ccc(NC2CCCCC2)c(-c2cn(C)cn2)c1 [Compound 82, 4-(cyclohexylamino)-N-methyl-3-(1-methyl-1H-imidazol-4-yl)benzenesulfonamide]"
10,> 3000,"CNS(=O)(=O)c1ccc(NC2CCCCC2)c(-c2cccc(N(C)C)n2)c1 [Compound 83, 4-(cyclohexylamino)-3-(6-(dimethylamino)pyridin-2-yl)-N-methylbenzenesulfonamide]"
11,100 to 1000,"CNS(=O)(=O)c1ccc(NC2CCCCC2)c(-c2cc(N)ccn2)c1 [Compound 84, 3-(4-aminopyridin-2-yl)-4-(cyclohexylamino)-N-methylbenzenesulfonamide]"
12,1000 to 3000,"CNc1cccc(-c2cc(S(=O)(=O)NC)ccc2NC2CCCCC2)n1 [Compound 85, 4-(cyclohexylamino)-N-methyl-3-(6-(methylamino)pyridin-2-yl)benzenesulfonamide]"
13,≤ 100,"CNS(=O)(=O)c1ccc(NC2CCCCC2)c(-c2cc(N(C)C)ccn2)c1 [Compound 87, 4-(cyclohexylamino)-3-(4-(dimethylamino)pyridin-2-yl)-N-methylbenzenesulfonamide]"
14,≤ 100,"CNc1ccnc(-c2cc(S(=O)(=O)NC)ccc2NC2CCCCC2)c1 [Compound 88, 4-(cyclohexylamino)-N-methyl-3-(4-(methylamino)pyridin-2-yl)benzenesulfonamide]"

# Continued, molecule first:
row,Compound,IC50 [nM]
1,"CNS(=O)(=O)c1ccc(NC2CCCCC2)c(-c2nnn(C3CCCN(C(C)C)C3)n2)c1 (centres unmarked) [Compound 61, 4-(cyclohexylamino)-3-(2-(1-isopropylpiperidin-3-yl)-2H-tetrazol-5-yl)-N-methylbenzenesulfonamide]",> 3000
2,"CNS(=O)(=O)c1ccc(NC2CCCCC2)c(-c2nnn(C3CCCN(S(C)(=O)=O)C3)n2)c1 (centres unmarked) [Compound 62, 4-(cyclohexylamino)-N-methyl-3-(2-(1-(methylsulfonyl)piperidin-3-yl)-2H-tetrazol-5-yl)benzenesulfonamide]",> 3000
3,"CNS(=O)(=O)c1ccc(NC2CCCCC2)c(-c2nnn(C3CCCN(c4ccccc4)C3)n2)c1 (centres unmarked) [Compound 63, 4-(cyclohexylamino)-N-methyl-3-(2-(1-phenylpiperidin-3-yl)-2H-tetrazol-5-yl)benzenesulfonamide]",> 3000
4,"CNS(=O)(=O)c1ccc(NC2CCCCC2)c(-c2n[nH]c(C)n2)c1 [Compound 66, 4-(cyclohexylamino)-N-methyl-3-(5-methyl-1H-1,2,4-triazol-3-yl)benzenesulfonamide]",100 to 1000
5,"CNS(=O)(=O)c1ccc(NC2CCCCC2)c(-c2nc(C)n(C)n2)c1 [Compound 67, 4-(cyclohexylamino)-3-(1,5-dimethyl-1H-1,2,4-triazol-3-yl)-N-methylbenzenesulfonamide]",≤ 100
6,"CNS(=O)(=O)c1ccc(NC2CCCCC2)c(-c2nnn(C3CCN(c4cccnc4)C3)n2)c1 (centres unmarked) [Compound 68, 4-(cyclohexylamino)-N-methyl-3-(2-(1-(pyridin-3-yl)pyrrolidin-3-yl)-2H-tetrazol-5-yl)benzenesulfonamide]",100 to 1000
7,"CNS(=O)(=O)c1ccc(NC2CCCCC2)c(-c2nnn(C3CN(c4cccnc4)C3)n2)c1 [Compound 70, 4-(cyclohexylamino)-N-methyl-3-(2-(1-(pyridin-3-yl)azetidin-3-yl)-2H-tetrazol-5-yl)benzenesulfonamide]",100 to 1000
8,"CNS(=O)(=O)c1ccc(NC2CCCCC2)c(-c2nnn(C3CC3)n2)c1 [Compound 71, 4-(cyclohexylamino)-3-(2-cyclopropyl-2H-tetrazol-5-yl)-N-methylbenzene sulfonamide]",> 3000
9,"CNS(=O)(=O)c1ccc(NC2CCC(F)(F)CC2)c(-c2nnn(C)n2)c1 [Compound 72, 4-((4,4-difluorocyclohexyl)amino)-N-methyl-3-(2-methyl-2H-tetrazol-5-yl)benzenesulfonamide]",≤ 100
10,"CNS(=O)(=O)c1ccc(NC2CCCC(F)(F)C2)c(-c2nnn(C)n2)c1 (centres unmarked) [Compound 73, 4-((3,3-difluorocyclohexyl)amino)-N-methyl-3-(2-methyl-2H-tetrazol-5-yl)benzenesulfonamide]",≤ 100
11,"CNS(=O)(=O)c1ccc(NC2CCCCC2)c(-c2nnn(C3CCCNC3)n2)c1 (centres unmarked) [Compound 74, 4-(cyclohexylamino)-N-methyl-3-(2-(piperidin-3-yl)-2H-tetrazol-5-yl)benzenesulfonamide]",100 to 1000
12,"CNS(=O)(=O)c1ccc(NC2CCCCC2)c(-c2nnnn2C2CCCNC2)c1 (centres unmarked) [Compound 75, 4-(cyclohexylamino)-N-methyl-3-(1-(piperidin-3-yl)-1H-tetrazol-5-yl)benzenesulfonamide]",1000 to 3000
13,"CNS(=O)(=O)c1ccc(NC2CCCCC2)c(-n2nccn2)c1 [Compound 81, 4-(Cyclohexylamino)-N-methyl-3-(2H-1,2,3-triazol-2-yl)benzenesulfonamide]",≤ 100
14,"CNS(=O)(=O)c1ccc(NC2CCCCC2)c(-c2nnn(C3CCCN(c4cccnc4)C3)n2)c1 (centres unmarked) [Compound 86, 4-(cyclohexylamino)-N-methyl-3-(2-(1-(pyridin-3-yl)piperidin-3-yl)-2H-tetrazol-5-yl)benzenesulfonamide]",100 to 1000
15,"CNS(=O)(=O)c1ccc(NC2CCCCC2)c(-n2ccnn2)c1 [Compound 89, 4-(cyclohexylamino)-N-methyl-3-(1H-1,2,3-triazol-1-yl)benzenesulfonamide]",> 3000
16,"CNS(=O)(=O)c1ccc(Nc2ccccc2)c(-c2nnn(C)n2)c1 [Compound 90, N-methyl-3-(2-methyl-2H-tetrazol-5-yl)-4-(phenylamino)benzenesulfonamide]",≤ 100
17,"CNS(=O)(=O)c1ccc(NC2CCCCC2)c(-c2nc(C)no2)c1 [Compound 91, 4-(cyclohexylamino)-N-methyl-3-(3-methyl-1,2,4-oxadiazol-5-yl)benzenesulfonamide]",100 to 1000
18,"CNS(=O)(=O)c1ccc(Nc2cccc(C(F)(F)F)c2)c(-c2nnn(C)n2)c1 [Compound 92, N-methyl-3-(2-methyl-2H-tetrazol-5-yl)-4-((3-(trifluoromethyl)phenyl)amino)benzenesulfonamide]",≤ 100
